Where “and” joins values, the source holds several entries; their conditions need not be identical. Equal entries are not always repeated. Marks after values point to notes of the source that are not given here. Values belong to the compound of their own block, whether it stands above or below them.
Assays:
[1] = system: NMIBC and MIBC cell lines; assay: Anticancer activity in bladder cancer cell lines; format: cell-based
Description: (§1) Bladder cancer presents as two diseases, NMIBC and muscle invasive bladder cancer (MIBC). Approximately three-fourths of newly diagnosed bladder cancer patients present with NMIBC. NMIBC, as it invades into bladder muscle, becomes MIBC. MIBC often metastasizes, requiring systemically administered chemotherapy agents. […] The ciclopirox from ciclopirox-POM prodrug delivery inhibits cell proliferation, colony formation, and spheroid formation in well characterized NMIBC and MIBC cell lines. Although that ciclopirox's fungicidal activity is mediated through its ability to chelate iron, and interrupt iron-dependent intracellular processes, ciclopirox in vitro anti-cancer activity in independent of commercially available iron chelators. […] Accordingly, ciclopirox-POM prodrug can be used in treatment of all forms of bladder cancer, and in cancer stem cells of many different cancers where the Notch signaling pathway is active.

[2] = system: Notch-1 signaling pathway; assay: Inhibition of Notch-1 signaling; format: cell-based; conditions: bladder cancer
Description: The prodrug converts to the active ciclopirox compound that effectively suppresses stem cells in bladder cancer and specifically targets the Notch-1 signaling pathway. […] Suppressing Notch is a significant activity for the compound to inhibit bladder and other cancers where Notch signaling is active (e.g. colon cancer, osteosarcoma).
as §1

[3] = Mouse plasma ciclopirox pharmacokinetics after 10 mg/kg IV bolus; format: in vivo; conditions: for Plasma Ciclopirox Concentrations: individual animals A-F, phosphate disodium salt
Procedure: The plasma ciclopirox concentrations in (ng/mL) were determined following bolus administration of ciclopirox-POM prodrug at a 10 mg/kg IV bolus in a mouse model. Time points where data collected are shown in Table 1 to be at 5, 15, 30, 60, 90, 120, 180, and 240 minutes along with the data. […] The IV bolus formulation for prodrug was in 25 mM phosphate buffer.
(§2) Time points where data collected are shown in Table 1 to be at 5, 15, 30, 60, 90, 120, 180, and 240 minutes along with the data.
Additionally, mouse intravenous dose pharmacokinetics were determined.
(§3) The IV bolus and oral administrations are described above.

[4] = Mouse plasma ciclopirox pharmacokinetics after 30 mg/kg oral dose; format: in vivo
Procedure: The plasma ciclopirox (i.e., CPX) concentrations in (ng/mL) were determined following bolus administration of ciclopirox-POM prodrug at a 30 mg/kg orally in a mouse model. Time points where data collected are shown in Table 3 to be at 5, 15, 30, 60, 90, 120, 180, and 240 minutes along with the data. […] The oral formulation is a composition having Orasweet SF along with the […].
as §2
Additionally, mouse oral dose pharmacokinetics were determined.
as §3

[5] = Detection of prodrug in plasma and urine after administration; format: in vivo
Description: Accordingly, ciclopirox is readily bioavailable when given IV as the prodrug. […] Based on the data, it is reasonable to believe that the ciclopirox-POM prodrug is rapidly converted to ciclopirox.
Accordingly, ciclopirox is readily bioavailable when given IV as the prodrug. […] Based on the data, it is reasonable to believe that the ciclopirox-POM prodrug is rapidly converted back to ciclopirox.

[6] = in vivo, iv, 10 mg/kg, Plasma Ciclopirox Concentrations
[7] = in vivo, iv, 10 mg/kg, Plasma Ciclopirox Concentrations, Mean
[8] = mouse, in vivo, po, 30 mg/kg, Plasma Ciclopirox Concentrations
[9] = mouse, in vivo, po, 30 mg/kg, Plasma Ciclopirox Concentrations, Mean
[10] = ciclopirox, mouse, 30 mg/kg oral

Structure (SMILES): Cc1cc(C2CCCCC2)n(O)c(=O)c1 [ciclopirox, 6-cyclohexyl-1-hydroxy-4-methylpyridin-2(1H)-one]
Cell proliferation [1]: inhibits | Colony formation [1]: inhibits | Spheroid formation [1]: inhibits | Notch-1 signaling pathway [2]: inhibits

Alpha rate constant ([3]; in vivo, iv, 10 mg/kg): 0.08802 min⁻¹ | Beta rate constant ([3]; in vivo, iv, 10 mg/kg): 0.01208 min⁻¹ | Vdbeta ([3]; in vivo, iv, 10 mg/kg): 4.5652 L/kg | clearance ([3]; in vivo, iv, 10 mg/kg): 55.2 mL/min/kg | AUC ([3]; in vivo, iv, 10 mg/kg, AUC (CPX AUC)): 2340 ng·h/mL | half-life ([3]; in vivo, iv, 10 mg/kg, Alpha Half-life): 7.87 min | half-life ([3]; in vivo, iv, 10 mg/kg, Beta Half-life): 57.4 min | concentration at 5 min [3, 6]: 6090 ng/mL | concentration at 60 min [3, 6]: 171 ng/mL | concentration at 90 min [3, 6]: 45.2 ng/mL | concentration at 120 min [3, 6]: 46.1 ng/mL | concentration at 240 min [3, 6]: 12 ng/mL | concentration at 5 min [3, 7]: 4880 ng/mL | concentration at 15 min [3, 7]: 892 ng/mL | concentration at 30 min [3, 7]: 354 ng/mL | concentration at 60 min [3, 7]: 133 ng/mL | concentration at 90 min [3, 7]: 58.7 ng/mL | concentration at 120 min [3, 7]: 43.2 ng/mL | concentration at 180 min [3, 7]: 25.2 ng/mL | concentration at 240 min [3, 7]: 15.9 ng/mL | bioavailability ([4]; mouse, in vivo, po): 21% | AUC ([4]; mouse, in vivo, po, 30 mg/kg): 956 ng·h/mL | Beta rate constant ([4]; mouse, in vivo, po, 30 mg/kg): 0.00916 min⁻¹ | CL/F ([4]; mouse, in vivo, po, 30 mg/kg): 405 mL/min/kg | Cmax ([4]; mouse, in vivo, po, 30 mg/kg): 548 ng/mL | Tmax ([4]; mouse, in vivo, po, 30 mg/kg): 15 min | half-life ([4]; mouse, in vivo, po, 30 mg/kg): 75.7 min | Plasma Ciclopirox Concentrations ([4]; mouse, in vivo, po, 30 mg/kg, 0 min): 0 ng/mL | concentration at 0 min [4, 8]: 0 ng/mL | concentration at 15 min [4, 8]: 478 ng/mL | concentration at 30 min [4, 8]: 427 ng/mL | concentration at 180 min [4, 8]: 78.2 ng/mL | concentration at 240 min [4, 8]: 72.3 ng/mL | concentration at 0 min [4, 9]: 0 ng/mL | concentration at 15 min [4, 9]: 548 ng/mL | concentration at 30 min [4, 9]: 449 ng/mL | concentration at 60 min [4, 9]: 309 ng/mL | concentration at 90 min [4, 9]: 260 ng/mL | concentration at 120 min [4, 9]: 151 ng/mL | concentration at 180 min [4, 9]: 80.1 ng/mL | concentration at 240 min [4, 9]: 74.7 ng/mL
Structure (SMILES): Cc1cc(C2CCCCC2)n(O)c(=O)c1 [Ciclopirox Olamine, reference compound]

Plasma Ciclopirox Concentrations, Mean ([3]; 10 mg/kg IV bolus, 5 min): 8005 ng/mL | Plasma Ciclopirox Concentrations, Mean ([3]; 10 mg/kg IV bolus, 15 min): 2763.3 ng/mL | Plasma Ciclopirox Concentrations, Mean ([3]; 10 mg/kg IV bolus, 30 min): 957 ng/mL | Plasma Ciclopirox Concentrations, Mean ([3]; 10 mg/kg IV bolus, 60 min): 342.8 ng/mL | Plasma Ciclopirox Concentrations, Mean ([3]; 10 mg/kg IV bolus, 90 min): 123 ng/mL | Plasma Ciclopirox Concentrations, Mean ([3]; 10 mg/kg IV bolus, 120 min): 60.9 ng/mL | Plasma Ciclopirox Concentrations, Mean ([3]; 10 mg/kg IV bolus, 180 min): 25.5 ng/mL | Plasma Ciclopirox Concentrations, Mean ([3]; 10 mg/kg IV bolus, 240 min): 11.1 ng/mL | CPX Bioavailability Following Prodrug Administration ([3]; IV administration, prodrug compared to olamine salt): 1.143 | Alpha Half-life ([3]; ciclopirox, 10 mg/kg IV bolus): 9.84 min | Alpha rate constant ([3]; ciclopirox, 10 mg/kg IV bolus): 0.07043 min⁻¹ | Beta Half-life ([3]; ciclopirox, 10 mg/kg IV bolus): 35.92 min | Beta rate constant ([3]; ciclopirox, 10 mg/kg IV bolus): 0.01929 min⁻¹ | CL ([3]; ciclopirox, 10 mg/kg IV bolus): 48.275* mL/min/kg | Vdbeta ([3]; ciclopirox, 10 mg/kg IV bolus): 2.502 L/kg | Beta Half-life [4, 10]: 52.76 min | Beta rate constant [4, 10]: 0.01316 min⁻¹ | CL/F [4, 10]: 722.06 mL/min/kg | Cmax [4, 10]: 520.3 ng/mL | Tmax [4, 10]: 15 min | Bioavailability following oral administration ([4]; mice, oral administration): 12% | Plasma Ciclopirox Concentrations ([4]; mouse, 30 mg/kg oral dose, 0 min, individual animals A-F): 0 ng/mL | Plasma Ciclopirox Concentrations, Mean ([4]; mouse, 30 mg/kg oral dose, 0 min): 0 ng/mL | Plasma Ciclopirox Concentrations, Mean ([4]; mouse, 30 mg/kg oral dose, 15 min): 520.3 ng/mL | Plasma Ciclopirox Concentrations, Mean ([4]; mouse, 30 mg/kg oral dose, 30 min): 280.7 ng/mL | Plasma Ciclopirox Concentrations, Mean ([4]; mouse, 30 mg/kg oral dose, 60 min): 215.7 ng/mL | Plasma Ciclopirox Concentrations, Mean ([4]; mouse, 30 mg/kg oral dose, 90 min): 106.9 ng/mL | Plasma Ciclopirox Concentrations, Mean ([4]; mouse, 30 mg/kg oral dose, 120 min): 72.5 ng/mL | Plasma Ciclopirox Concentrations, Mean ([4]; mouse, 30 mg/kg oral dose, 180 min): 49.4 ng/mL | Plasma Ciclopirox Concentrations, Mean ([4]; mouse, 30 mg/kg oral dose, 240 min): 20.1 ng/mL | Foral ([4]; mouse, oral 30 mg/kg v. IV bolus 10 mg/kg of the same substance): 0.06686 | CPX Bioavailability Following Prodrug Administration ([4]; mouse, oral administration, prodrug compared to olamine salt): 0.5603 | Detection of the prodrug in plasma ([5]; following IV and oral administration): inability to detect | Detection of the prodrug in plasma and urine ([5]; following IV, oral, subcutaneous and intraperitoneal administration): inability to detect
Structure (SMILES): Cc1cc(C2CCCCC2)n(OCOP(=O)([O-])[O-])c(=O)c1.[Na+].[Na+] [Ciclopirox-POM]
Plasma Ciclopirox Concentrations ([3]; 10 mg/kg IV bolus, 5 min, 10 mg/kg): 7280 ng/mL and 7320 ng/mL and 6370 ng/mL and 9700 ng/mL and 8500 ng/mL and 8860 ng/mL | Plasma Ciclopirox Concentrations ([3]; 10 mg/kg IV bolus, 15 min, 10 mg/kg): 3310 ng/mL and 3180 ng/mL and 1520 ng/mL and 1370 ng/mL and 4010 ng/mL and 3190 ng/mL | Plasma Ciclopirox Concentrations ([3]; 10 mg/kg IV bolus, 30 min, 10 mg/kg): 994 ng/mL and 1200 ng/mL and 986 ng/mL and 1030 ng/mL and 1080 ng/mL and 452 ng/mL | Plasma Ciclopirox Concentrations ([3]; 10 mg/kg IV bolus, 60 min, 10 mg/kg): 410 ng/mL and 259 ng/mL (2×) and 284 ng/mL and 409 ng/mL and 436 ng/mL | Plasma Ciclopirox Concentrations ([3]; 10 mg/kg IV bolus, 90 min, 10 mg/kg): 97.6 ng/mL and 157 ng/mL and 74.2 ng/mL and 79.1 ng/mL and 162 ng/mL and 168 ng/mL | Plasma Ciclopirox Concentrations ([3]; 10 mg/kg IV bolus, 120 min, 10 mg/kg): 58 ng/mL and 73.7 ng/mL and 57.9 ng/mL and 19.3 ng/mL and 71.7 ng/mL and 84.8 ng/mL | Plasma Ciclopirox Concentrations ([3]; 10 mg/kg IV bolus, 180 min, 10 mg/kg): 18.1 ng/mL and 23 ng/mL and 19.5 ng/mL and 34.8 ng/mL and 19.7 ng/mL and 37.7 ng/mL | Plasma Ciclopirox Concentrations ([3]; 10 mg/kg IV bolus, 240 min, 10 mg/kg): 13 ng/mL and 10 ng/mL (2×) and 15 ng/mL and 12 ng/mL and 8 ng/mL | Plasma Ciclopirox Concentrations ([4]; mouse, 30 mg/kg oral dose, 15 min, individual animals A-F, phosphate disodium salt, 30 mg/kg): 388 ng/mL and 646 ng/mL and 857 ng/mL and 245 ng/mL and 479 ng/mL and 507 ng/mL | Plasma Ciclopirox Concentrations ([4]; mouse, 30 mg/kg oral dose, 30 min, individual animals A-F, phosphate disodium salt, 30 mg/kg): 302 ng/mL and 252 ng/mL and 264 ng/mL and 317 ng/mL and 207 ng/mL and 342 ng/mL | Plasma Ciclopirox Concentrations ([4]; mouse, 30 mg/kg oral dose, 60 min, individual animals A-F, phosphate disodium salt, 30 mg/kg): 129 ng/mL and 404 ng/mL and 154 ng/mL and 229 ng/mL and 171 ng/mL and 207 ng/mL | Plasma Ciclopirox Concentrations ([4]; mouse, 30 mg/kg oral dose, 90 min, individual animals A-F, phosphate disodium salt, 30 mg/kg): 91 ng/mL and 66.8 ng/mL and 146 ng/mL and 137 ng/mL and 120 ng/mL and 80.3 ng/mL | Plasma Ciclopirox Concentrations ([4]; mouse, 30 mg/kg oral dose, 120 min, individual animals A-F, phosphate disodium salt, 30 mg/kg): 72.5 ng/mL and 60.6 ng/mL and 64.6 ng/mL and 81.4 ng/mL and 83.6 ng/mL | Plasma Ciclopirox Concentrations ([4]; mouse, 30 mg/kg oral dose, 180 min, individual animals A-F, phosphate disodium salt, 30 mg/kg): 36.8 ng/mL and 45.1 ng/mL and 59.1 ng/mL and 66.4 ng/mL and 44.9 ng/mL and 44 ng/mL | Plasma Ciclopirox Concentrations ([4]; mouse, 30 mg/kg oral dose, 240 min, individual animals A-F, phosphate disodium salt, 30 mg/kg): 9.51 ng/mL and 19 ng/mL (2×) and 14.7 ng/mL and 38.1 ng/mL
